# Values joined by “and” are separate entries in the source; they are usually repeats but may differ in a detail not shown here. Equal entries are not always repeated.
# Tests used:
# [1] = target: T1, VMAT-2 (Rattus norvegicus, UniProt Q01827); assay: [3H]DHTBZ binding in purified striatal vesicles prepared from treated rats; settings: rats, MDMA 4 x 10 mg/kg s.c., both 1 and 24 h after treatment
# Protocol: Synaptic vesicles were obtained from synaptosomes prepared from rat striatum as described above. Synaptosomes were resuspended and homogenized in cold distilled deionized water. Osmolarity was restored by addition of HEPES and potassium tartrate 245 and 100 mM (final concentrations; pH 7.5), respectively. Samples were centrifuged for 20 min at 20,000×g (4° C.) to remove lysed synaptosomal membranes. MgSO4 (1 mM, final concentration) was added to the supernatant, which was then centrifuged for 45 min at 100,000×g (4° C.). The resulting vesicular pellet was resuspended in wash buffer at a concentration of 50 mg/ml (original tissue weight). […] Binding of [^3H]DHTBZ was performed as described by Teng et al. (1998). Briefly, 200 μl of the synaptic vesicle preparation (˜6 μg of protein) was incubated in wash buffer in the presence of [^3H]DHTBZ (2 nM final concentration) for 10 min at 25° C. The reaction was terminated by addition of 1 ml of cold wash buffer and rapid filtration through Whatman GF/F filters soaked in 0.5% polyethylenimine. Filters were washed three times with ice-cold wash buffer. Nonspecific binding was determined by coincubation with 20 μM tetrabenazine. All protein concentrations were determined by a BioRad protein assay (Bio-Rad, Richmond, Calif.).
# Binding of [^3H]DHTBZ was performed as described by Teng et al. (1998). Briefly, 200 μl (˜6 μg protein) of the synaptic vesicle preparation was incubated in wash buffer in the presence of [^3H]DHTBZ (2 nM final concentration except in kinetic analyses wherein 0.25-500 nM DHTBZ was employed) for 10 m in at 25° C. The reaction was terminated by addition of 1 ml cold wash buffer and rapid filtration through Whatman GF/F filters soaked in 0.5% polyethylenimine. Filters were washed three times with ice-cold wash buffer. Radioactivity trapped in filters was counted using a liquid scintillation counter. Nonspecific binding was determined by coincubation with 20 μM TBZ. All protein concentrations were determined by a Bio-Rad protein assay (Bio-Rad Inc.).
# Binding of[^3H]DHTBZ was performed as described by Teng et al. (1998). Briefly, 200 μl (˜5 μg protein) of the synaptic vesicle preparation was incubated in wash buffer in the presence of [^3H]DHTBZ (2 nM final concentration except in kinetic analyses wherein 0.25-500 nM DHTBZ was employed) for 10 m in at 25° C. The reaction was terminated by addition of 1 ml cold wash buffer and rapid filtration through Whatman GF/F filters soaked in 0.5% polyethylenimine. Filters were washed three times with ice-cold wash buffer. Radioactivity trapped in filters was counted using a liquid scintillation counter. Nonspecific binding was determined by coincubation with 20 μM TBZ. All protein concentrations were determined by a Bio-Rad protein assay (Bio-Rad Inc.).
# [2] = target: T2, DAT (Rattus norvegicus, UniProt P23977); assay: In vitro preincubation of striatal synaptosomes with MDMA: [3H]DA uptake and WIN35428 binding; format: biochemical; settings: 30 min, 37° C.
# T2 construct: from tissue; host or cells: striatum of male Sprague-Dawley rats (synaptosomes, P2)
# Protocol: (§1) Uptake of [^3H]DA was determined in striatal synaptosomes prepared according to the method described by Kokoshka et al. (1998). Briefly, fresh striatal tissue was homogenized in cold 0.32 M sucrose and centrifuged (800×g for 12 min; 4° C.). The supernatant (S1) was then centrifuged (22,000×g for 15 min; 4° C.), and the resulting pellet (P2) was resuspended in ice-cold modified Kreb's buffer (in mM: 126 NaCl, 4.8 KCl, 1.3 CaCl2, 16 sodium phosphate, 1.4 MgSO4, 11 dextrose, 1-ascorbic acid, pH 7.4). Assays were conducted in Kreb's buffer. Each assay tube contained synaptosomal tissue (i.e., resuspended P2 obtained from 1.5 mg of original wet weight striatal tissue) and 1 μM pargyline. Nonspecific values were determined in the presence of 100 μM cocaine. After preincubation of assay tubes for 10 min at 37° C., assays were initiated by the addition of [^3H]DA (0.5 nM final concentration). Samples were incubated at 37° C. for 3 min. Samples were then filtered through Whatman GF/B filters (Brandel, Gaithersburg, Md.) soaked previously in 0.05% polyethylenimine. Filters were washed rapidly 3 times with 3 ml of ice-cold 0.32 M sucrose using a Brandel filtering manifold. […] Remaining resuspended P2 samples were assayed for protein concentrations according to the method of Lowry et al. (1951). In MDMA preincubation experiments, samples were preincubated with 10 μM MDMA for 30 min at 37° C. After 30 min, resuspended P2 fractions were “washed” by centrifugation (22,000×g for 15 min; 4° C.). The resulting pellet (P3) was then resuspeded in ice-cold Kreb's buffer, and once again centrifuged (22,000×g for 15 min; 4° C.) to obtain a P4 pellet that was subsequently resuspended and assayed. [^3H]WIN35428 binding (0.5 nM final concentration) was conducted in phosphate-buffered 0.32 M sucrose, pH 7.4, with synaptosomes obtained from 2 mg (original wet weight) of striatal tissue per reaction tube, and samples were incubated on ice for 2 hr. Samples were then filtered through Whatman GF/B filters (Brandel, Gaithersburg, Md.) soaked previously in 0.05% polyethylenimine. Filters were washed rapidly 3 times with 3 ml of ice-cold 0.32 M sucrose using a Brandel filtering manifold. […] Remaining resuspended P2 samples were assayed for protein concentrations according to the method of Lowry et al. (1951).
# [3] = target: VMAT-2 (Mus musculus, UniProt Q8BRU6); assay: Vesicular [3H]dopamine uptake in striatal vesicles prepared from treated mice; format: in vivo; settings: MDMA 4 x 10 mg/kg s.c.
# Protocol: (A. E. Fleckenstein, et al., J. Pharmacol Exp Ther. (1997) 282:834-838). Briefly, fresh tissue was homogenized in ice-cold 0.32 M sucrose. The homogenate was centrifuged (800×g for 12 min; 4° C.), and the supernatant (S1) was carefully removed and centrifuged (22,000×g for 15 min; 4° C.) to obtain the synaptosomal-containing pellet (P2). The resulting P2 were resuspended and homogenized in ice-cold distilled deionized water. Osmolarity was restore by addition 25 mM HEPES and 100 mM potassium tartrate (final concentration; pH 7.5 at 4° C. respectively). […] The resultant S3 removed and MgSO4 added (final concentration of [1 mM] pH 7.5 at 4° C.) and centrifuged at 100,000×g for 45 min. The final P4 were resuspended at 50 mg/ml (original tissue wet weight).
# [4] = target: T3, plasmalemmal DA transporter (DAT) (Rattus norvegicus, UniProt P23977); assay: Plasmalemmal [3H]DA uptake in striatal synaptosomes prepared from treated rats; format: in vivo; settings: MDMA 4 x 10 mg/kg s.c.
# T3 construct: from tissue; host or cells: striatum of male Sprague-Dawley rats (synaptosomes, P2)
# Protocol: Uptake of [^3H]DA was determined in striatal synaptosomes prepared according to the method described by Kokoshka et al. (1998). Briefly, fresh striatal tissue was homogenized in cold 0.32 M sucrose and centrifuged (800×g for 12 min; 4° C.). The supernatant (S1) was then centrifuged (22,000×g for 15 min; 4° C.), and the resulting pellet (P2) was resuspended in ice-cold modified Kreb's buffer (in mM: 126 NaCl, 4.8 KCl, 1.3 CaCl2, 16 sodium phosphate, 1.4 MgSO4, 11 dextrose, 1-ascorbic acid, pH 7.4). Assays were conducted in Kreb's buffer. Each assay tube contained synaptosomal tissue (i.e., resuspended P2 obtained from 1.5 mg of original wet weight striatal tissue) and 1 μM pargyline. Nonspecific values were determined in the presence of 100 μM cocaine. After preincubation of assay tubes for 10 min at 37° C., assays were initiated by the addition of [^3H]DA (0.5 nM final concentration). Samples were incubated at 37° C. for 3 min. Samples were then filtered through Whatman GF/B filters (Brandel, Gaithersburg, Md.) soaked previously in 0.05% polyethylenimine. Filters were washed rapidly 3 times with 3 ml of ice-cold 0.32 M sucrose using a Brandel filtering manifold. […] Remaining resuspended P2 samples were assayed for protein concentrations according to the method of Lowry et al. (1951). In MDMA preincubation experiments, samples were preincubated with 10 μM MDMA for 30 min at 37° C. After 30 min, resuspended P2 fractions were “washed” by centrifugation (22,000×g for 15 min; 4° C.). The resulting pellet (P3) was then resuspeded in ice-cold Kreb's buffer, and once again centrifuged (22,000×g for 15 min; 4° C.) to obtain a P4 pellet that was subsequently resuspended and assayed. [^3H]WIN35428 binding (0.5 nM final concentration) was conducted in phosphate-buffered 0.32 M sucrose, pH 7.4, with synaptosomes obtained from 2 mg (original wet weight) of striatal tissue per reaction tube, and samples were incubated on ice for 2 hr. Samples were then filtered through Whatman GF/B filters (Brandel, Gaithersburg, Md.) soaked previously in 0.05% polyethylenimine. […]
# [5] = target: T1, VMAT-2; format: in vivo; set-up: purified striatal vesicles prepared from treated rats; from tissue; host or cells: striatum of male Sprague-Dawley rats (synaptic vesicles; P2, P3, S3 fractions); settings: rats, MDMA 4 x 10 mg/kg s.c.
# Protocol: Osmolarity was restored by addition of N-(2-hydroxyethyl)-piperazine-N′-2-ethanesulfonic acid (HEPES) and potassium tartrate 25 mM and 100 mM (final concentrations; pH 7.5 at 4° C.), respectively.
# [6] = target: T3, plasmalemmal DA transporter (DAT); settings: MDMA-treated rats, multiple high-dose, Metzger et al., 1998, cited from earlier work
# [7] = target: T2, DAT; assay: [3H]WIN35428 binding in striatal synaptosomes prepared from treated rats; format: in vivo; settings: MDMA 4 x 10 mg/kg s.c.
# Protocol: as §1
# T1 sequence (Q01827 whole entry): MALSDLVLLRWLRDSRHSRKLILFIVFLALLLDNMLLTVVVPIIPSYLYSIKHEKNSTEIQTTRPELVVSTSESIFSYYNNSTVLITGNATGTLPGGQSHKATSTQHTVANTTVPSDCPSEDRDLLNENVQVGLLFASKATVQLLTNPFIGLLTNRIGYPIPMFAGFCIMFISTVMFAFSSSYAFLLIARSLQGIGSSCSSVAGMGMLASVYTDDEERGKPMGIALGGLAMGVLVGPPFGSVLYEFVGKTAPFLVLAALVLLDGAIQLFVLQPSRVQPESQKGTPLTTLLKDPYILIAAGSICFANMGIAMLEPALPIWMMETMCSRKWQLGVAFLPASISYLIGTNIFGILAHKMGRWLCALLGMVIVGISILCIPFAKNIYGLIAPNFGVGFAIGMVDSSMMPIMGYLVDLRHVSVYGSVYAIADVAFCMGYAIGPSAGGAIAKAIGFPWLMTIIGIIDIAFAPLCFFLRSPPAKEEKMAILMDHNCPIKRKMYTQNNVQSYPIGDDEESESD
# T3 sequence (P23977 whole entry): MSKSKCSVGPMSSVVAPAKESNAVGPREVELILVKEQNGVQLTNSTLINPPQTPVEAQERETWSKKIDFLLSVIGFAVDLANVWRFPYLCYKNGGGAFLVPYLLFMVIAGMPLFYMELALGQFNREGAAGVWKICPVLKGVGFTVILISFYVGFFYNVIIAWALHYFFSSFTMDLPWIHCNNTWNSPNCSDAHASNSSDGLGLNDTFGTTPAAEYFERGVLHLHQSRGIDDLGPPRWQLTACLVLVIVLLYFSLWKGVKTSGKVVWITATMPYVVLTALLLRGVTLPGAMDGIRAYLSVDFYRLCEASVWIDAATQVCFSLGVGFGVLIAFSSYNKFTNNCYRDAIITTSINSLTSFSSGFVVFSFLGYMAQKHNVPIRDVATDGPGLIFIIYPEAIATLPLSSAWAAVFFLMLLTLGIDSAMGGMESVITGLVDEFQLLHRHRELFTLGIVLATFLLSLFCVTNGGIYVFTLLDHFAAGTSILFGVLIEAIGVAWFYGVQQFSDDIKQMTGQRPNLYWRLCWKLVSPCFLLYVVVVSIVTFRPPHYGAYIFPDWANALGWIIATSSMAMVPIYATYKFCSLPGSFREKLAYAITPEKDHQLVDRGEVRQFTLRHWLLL
# T2 sequence (P23977 whole entry): as above
# Chain of VMAT-2 (Mus musculus, UniProt Q8BRU6) (Q8BRU6 whole entry): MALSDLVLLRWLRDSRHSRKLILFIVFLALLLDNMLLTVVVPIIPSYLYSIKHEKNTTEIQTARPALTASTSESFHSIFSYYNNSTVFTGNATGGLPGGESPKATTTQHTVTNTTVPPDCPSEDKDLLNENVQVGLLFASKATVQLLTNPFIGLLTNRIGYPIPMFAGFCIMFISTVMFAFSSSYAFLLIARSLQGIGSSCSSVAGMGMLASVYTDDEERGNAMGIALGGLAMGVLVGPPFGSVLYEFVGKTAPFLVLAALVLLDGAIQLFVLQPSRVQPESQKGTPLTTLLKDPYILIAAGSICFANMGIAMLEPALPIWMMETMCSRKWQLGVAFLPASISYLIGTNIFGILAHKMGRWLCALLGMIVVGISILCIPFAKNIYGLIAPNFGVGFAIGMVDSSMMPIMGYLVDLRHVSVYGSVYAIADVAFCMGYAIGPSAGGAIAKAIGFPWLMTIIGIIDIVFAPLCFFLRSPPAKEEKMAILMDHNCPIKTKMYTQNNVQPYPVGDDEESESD
compound,measurement,setting,value
"CNC(C)Cc1ccc2c(c1)OCO2 (stereo not drawn) [MDMA, methylenedioxymethamphetamine]",binding of the VMAT-2 ligand [3H]DHTBZ,[1],reduced
same,WIN35428 binding after incubation of synaptosomes with MDMA,[2]; MDMA 10 μM,no effect
same,decrease in DA uptake in vitro,[2]; striatal synaptosomes incubated with MDMA 10 μM,35-55%
same,vesicular dopamine uptake after multiple MDMA administrations,[3]; 1 h,rapidly decreased
same,decrease in vesicular dopamine uptake 24 h later,[3]; 24 h,largely reversed
same,magnitude of the decrease in plasmalemmal DA uptake,"[4]; 2-h intervals, 1 h",35-55%
same,deficit in plasmalemmal DA uptake 24 h after drug treatment,[4]; 24 h,reversed
same,deficit in vesicular DA uptake,[5]; 1 h,25-30%
same,vesicular DA uptake 1 h after multiple MDMA administrations,[5]; 1 h,rapidly decreased
same,deficit in vesicular DA uptake 24 h after drug treatment,[5]; 24 h,partially recovered
same,Vmax of plasmalemmal DA uptake,[6],1410 fmol/μg/5 min
same,Km,[6]; read-out: transporter Km of plasmalemmal DA uptake,0.0989 µM
same,WIN35428 binding in the body temperature experiment,"[7]; 6 or 24° C. ambient, 1 h (data not shown)",not affected
same,decrease in WIN35428 binding,[7]; 1 h after treatment,10% and 18%
same,deficit in WIN35428 binding 24 h after drug treatment,[7]; 24 h,persisted

# — patent US20060241082A1, “Modulating vesicular monoamine transporter trafficking and function: a novel approach for the treatment of parkinson's disease” (priority 2002, published 2006)
